{
  "source": "paper PMC8583966",
  "about": "“Proteasome Inhibitors and Their Pharmacokinetics, Pharmacodynamics, and Metabolism” (International Journal of Molecular Sciences, 2021)",
  "origin": "cited, not measured here",
  "key": {"β2": {"tested_on": "β2", "set-up": "method as in PMID 20110052", "settings": "whole blood, doses as high as 45 mg/m2; cited from earlier work"}, "[1]": {"settings": "in vivo; cited from earlier work"}, "[2]": {"tested_on": "LMP7 subunit of the immunoproteasome", "settings": "patients, doses ≥15 mg/m2; cited from earlier work"}, "proteasome subunits": {"tested_on": "proteasome subunits", "settings": "summary table; cited from earlier work"}, "[3]": {"tested_on": "β5 subunit of the constitutive proteasome", "settings": "patients, doses ≥15 mg/m2; cited from earlier work"}, "β1": {"tested_on": "β1", "set-up": "method as in PMID 20110052", "settings": "whole blood, doses as high as 45 mg/m2; cited from earlier work"}, "proteasome CT-L activity": {"tested_on": "proteasome CT-L activity", "settings": "following the first dose for each week of dosing; cited from earlier work"}, "[4]": {"settings": "human, in vivo, iv; cited from earlier work"}, "[5]": {"settings": "in vivo; cited from earlier work", "remark": "listed apart in the source"}},
  "data": [
    {"compound": "CC(C)C[C@H](NC(=O)[C@H](CCc1ccccc1)NC(=O)CN1CCOCC1)C(=O)N[C@@H](Cc1ccccc1)C(=O)N[C@@H](CC(C)C)C(=O)[C@@]1(C)CO1", "note": "[Carfilzomib]", "values": [
      {"measurement": "inhibition of β2", "setting": "β2", "value": "Less than 18%"},
      {"measurement": "dose excreted intact", "setting": "[1]", "value": "less than 1%"},
      {"measurement": "average inhibition of LMP7", "setting": "[2]", "value": "greater than 83%"},
      {"measurement": "Subunit Inhibition", "setting": "proteasome subunits", "value": "ß5 and LMP7"},
      {"measurement": "average inhibition of β5", "setting": "[3]", "value": "greater than 83%"},
      {"measurement": "inhibition of β1", "setting": "β1", "value": "Less than 18%"},
      {"measurement": "time proteasome inhibition was maintained", "setting": "proteasome CT-L activity", "value": "≥ 48", "unit": "h"},
      {"measurement": "t1/2", "setting": "[4]", "value": "< 30", "unit": "min"},
      {"measurement": "rates of peripheral neuropathy lower than with bortezomib", "setting": "[5]", "value": "> 60", "unit": "%"}
    ]}
  ]
}
